For one test, the system named is SK-MEL-3 cells. Nature of the test: Assay 1 cell proliferation measurement (CTG, 72 h), SK-MEL-3. Type of test: cell-based, human. To be noted: Assay 1, 72 h, Cell Titer Glo, read-out: SK-MEL-3 IC50 [nM] (melanoma). The protocol:
Cell Proliferation Measurement
The antiproliferative activity of the compounds of the general formula (I) was examined in vitro in human cancer cells. For this purpose, the appropriate number of cells (Hela: 800; SK-MEL-3: 1000; A549: 800) were plated in 384-well plates with appropriate growth medium ((A549: DMEM/Ham's F12 (Biochrom; #FG 4815 with stabile Glutamine), FCS 10% final (Biochrom; #S 0415); Hela: DMEM/Ham's F12 (Biochrom; #FG 4815 with stabile Glutamine), FCS 10% final (Biochrom; #S 0415); SK-MEL-3: McCoy's 5A (Biochrom; #F 1015), FCS 10% final (Biochrom; #S 0415), L-Alanyl-L-Glutamine final: 2 mM, (Biochrom; #K 0302)) and incubated at 37° C. overnight. After 24 h, cells on one plate (0 h plate) were treated with 30 μl/cavity of CTG solution (Promega Cell Titer Glo (catalogue #G755B and G756B)) and incubated at room temperature for 10 min, and luminescence was measured by means of a VICTOR V (Perkin Elmer), in order to determine cell viability on commencement of treatment. The cells on the test plate were treated with the compounds of the general formula (I) as and incubated at 37° C. for 72 h. The compounds were added to the cells by means of an HP D300 digital dispenser in a 10-step 2.5-fold dilution series generally starting at a maximum final drug concentration of 100 nM. As control, the cells were treated with vehicle (DMSO at 0.3% final concentration). After 72 h, the cells were treated with 30 μl/cavity of CTG solution (Promega Cell Titer Glo (catalogue #G755B and G756B)) and incubated at room temperature for 10 min. and luminescence was measured by means of a VICTOR V (Perkin Elmer), in order to determine cell viability at the end of treatment. The percentage effect on cell growth and the IC50 derived therefrom were determined for each test substance using the values from the 0 h plate […] and the DMSO control […]. The IC50 values were calculated using a 4-parameter fit.

In another test the target is human full length PDE3B (Homo sapiens (Human), UniProt Q13370). The experiment in a line: Assay 5 PDE3B enzyme inhibition (3H-cAMP SPA). The format is biochemical. To be noted: Sf9 cell extract. The protocol: (§1) The commercially available 3H-cAMP Scintillation Proximity Assay (SPA, Perkin Elmer) system was used for enzyme inhibition studies. For the determination of the in vitro effect of example compounds on the PDE3B reactions 2 μl of the respective example compound solution in DMSO (serial dilutions) were placed in wells of microtiter plates (Isoplate-96/200W; Perkin Elmer). 50 μl of a dilution of PDE3B cell extract from Sf9 cells overexpressing human full length PDE3B (SB Drug Discovery, UK) in buffer A (50 mM Tris/HCl pH 7.5, 8.3 mM MgCl2, 1.7 mM EDTA, 0.2% BSA) was added. The dilution of the PDE3B cell extract was chosen such that the reaction kinetics was linear and less than 70% of the substrate was consumed (typical dilution 1:6000). The reaction was started by addition of 50 μl (0.025 μCi) of 1:2000 in buffer A w/o BSA diluted substrate [8-3H]adenosine 3′, 5′-cyclic phosphate (1 μCi/μl; Perkin Elmer). After incubation at room temperature for 60 min, the reaction was stopped by addition of 25 μl of a suspension containing 18 mg/ml yttrium scintillation proximity beads (Perkin Elmer) in water. The microtiter plates were sealed and measured in a Microbeta scintillation counter (PerkinElmer Wallac). IC50 values were determined from sigmoidal curves by plotting percentage PDE3B activity vs log compound concentration.
Sequence of human full length PDE3B (Q13370 whole entry): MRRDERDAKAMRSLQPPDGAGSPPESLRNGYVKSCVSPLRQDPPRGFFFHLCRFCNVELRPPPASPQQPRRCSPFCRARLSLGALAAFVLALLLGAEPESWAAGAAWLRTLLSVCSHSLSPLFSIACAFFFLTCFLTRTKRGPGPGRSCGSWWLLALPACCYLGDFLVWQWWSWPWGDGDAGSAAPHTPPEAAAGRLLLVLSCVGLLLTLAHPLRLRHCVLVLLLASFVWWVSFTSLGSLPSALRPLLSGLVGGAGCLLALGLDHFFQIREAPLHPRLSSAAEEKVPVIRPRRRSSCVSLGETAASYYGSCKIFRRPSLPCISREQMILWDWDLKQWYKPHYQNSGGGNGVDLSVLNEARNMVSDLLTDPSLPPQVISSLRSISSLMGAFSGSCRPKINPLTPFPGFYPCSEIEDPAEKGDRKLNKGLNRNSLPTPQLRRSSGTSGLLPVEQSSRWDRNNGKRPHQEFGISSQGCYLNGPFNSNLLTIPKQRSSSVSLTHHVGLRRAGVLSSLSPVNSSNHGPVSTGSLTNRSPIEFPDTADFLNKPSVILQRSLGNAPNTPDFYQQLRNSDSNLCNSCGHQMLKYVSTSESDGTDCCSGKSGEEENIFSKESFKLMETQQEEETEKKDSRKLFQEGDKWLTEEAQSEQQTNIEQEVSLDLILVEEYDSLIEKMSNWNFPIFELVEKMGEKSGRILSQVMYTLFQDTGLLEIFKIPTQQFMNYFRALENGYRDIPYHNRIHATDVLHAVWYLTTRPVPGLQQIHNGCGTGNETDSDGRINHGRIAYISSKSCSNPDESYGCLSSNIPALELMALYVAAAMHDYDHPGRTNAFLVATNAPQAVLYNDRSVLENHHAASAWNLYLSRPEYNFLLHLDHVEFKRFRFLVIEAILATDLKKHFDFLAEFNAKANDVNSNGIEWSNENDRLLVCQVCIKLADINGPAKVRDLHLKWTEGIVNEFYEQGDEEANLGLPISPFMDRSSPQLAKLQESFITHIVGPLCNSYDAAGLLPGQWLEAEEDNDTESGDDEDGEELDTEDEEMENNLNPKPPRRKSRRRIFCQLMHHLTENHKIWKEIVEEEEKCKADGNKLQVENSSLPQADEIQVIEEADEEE

In a further test the test system is HeLa cells. Nature of the test: Assay 1 cell proliferation measurement (CTG, 72 h), HeLa. The format is cell-based, human. To be noted: Assay 1, 72 h, Cell Titer Glo, read-out: HeLa IC50 [nM] (Cervical cancer). In short, it runs like this: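 Cells were plated, grown overnight at 37 °C, then treated 72 h with a 10-step 2.5-fold dilution series from 100 nM maximum final (0.3% DMSO vehicle). Viability was read by CellTiter-Glo luminescence. IC50 from a 4-parameter fit, normalised to a 0 h plate (maximum inhibition) and DMSO control (minimum inhibition).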
For orientation: ATP-based viability assays read luminescence as a measure of living cells.

The next test addresses human full length PDE3A (Homo sapiens (Human), UniProt Q14432). The experiment in a line: Assay 4 PDE3A enzyme inhibition (3H-cAMP SPA). The format is biochemical. To be noted: Sf9 cell extract. The protocol:
Assay 4 Method for PDE3A Enzyme Inhibition
as §1, with “PDE3A” for “PDE3B”, “1:5000).” for “1:6000).”

Counter-ions that a name gives are not always drawn. Like-named read-outs stand apart in the source and are kept apart here.

In general, IC50 refers to the midpoint of a concentration-inhibition curve.

Sequence of human full length PDE3A (Q14432 whole entry): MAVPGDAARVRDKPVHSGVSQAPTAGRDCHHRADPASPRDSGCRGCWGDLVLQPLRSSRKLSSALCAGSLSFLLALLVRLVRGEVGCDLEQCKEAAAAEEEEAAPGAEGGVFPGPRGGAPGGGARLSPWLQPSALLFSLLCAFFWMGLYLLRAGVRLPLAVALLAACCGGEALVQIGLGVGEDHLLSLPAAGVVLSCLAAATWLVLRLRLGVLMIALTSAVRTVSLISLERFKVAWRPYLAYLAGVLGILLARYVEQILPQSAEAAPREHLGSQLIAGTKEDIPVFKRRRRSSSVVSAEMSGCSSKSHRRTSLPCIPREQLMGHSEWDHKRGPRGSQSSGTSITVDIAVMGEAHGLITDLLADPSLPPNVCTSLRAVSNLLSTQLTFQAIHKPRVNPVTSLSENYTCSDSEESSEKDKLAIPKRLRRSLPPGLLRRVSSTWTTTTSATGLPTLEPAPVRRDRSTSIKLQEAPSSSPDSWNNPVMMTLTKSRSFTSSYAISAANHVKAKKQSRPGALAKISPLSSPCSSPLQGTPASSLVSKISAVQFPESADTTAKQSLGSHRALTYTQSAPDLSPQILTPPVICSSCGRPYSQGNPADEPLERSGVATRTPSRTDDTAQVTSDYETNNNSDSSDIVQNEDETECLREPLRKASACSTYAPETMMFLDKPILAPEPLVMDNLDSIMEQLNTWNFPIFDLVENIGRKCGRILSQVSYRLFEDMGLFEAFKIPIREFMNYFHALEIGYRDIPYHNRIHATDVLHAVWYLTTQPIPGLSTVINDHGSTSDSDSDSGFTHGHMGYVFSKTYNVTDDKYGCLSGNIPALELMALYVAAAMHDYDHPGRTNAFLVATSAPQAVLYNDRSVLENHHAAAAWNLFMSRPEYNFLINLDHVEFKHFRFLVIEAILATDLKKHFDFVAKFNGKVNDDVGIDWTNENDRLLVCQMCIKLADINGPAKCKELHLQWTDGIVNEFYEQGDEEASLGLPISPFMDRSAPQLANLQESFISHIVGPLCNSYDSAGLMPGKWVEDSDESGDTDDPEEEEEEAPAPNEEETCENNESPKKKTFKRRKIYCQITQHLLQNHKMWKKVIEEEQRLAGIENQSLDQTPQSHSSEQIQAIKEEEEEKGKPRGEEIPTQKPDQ

In the case of `CC1OC(=O)NN=C1c1ccc(N2CCOCC2)cc1` (racemic) [Example 20, (rac)-6-Methyl-5-[4-(morpholin-4-yl)phenyl]-3,6-dihydro-2H-1,3,4-oxadiazin-2-one], the IC50 in the test with SK-MEL-3 cells (Homo sapiens, SK-MEL3) is 41 nM; against human full length PDE3B it was 100 nM; in the test with HeLa cells (Homo sapiens, HeLa) it was 15 nM; against human full length PDE3A, 200 nM.

Regarding `CC1OC(=O)NN=C1c1ccc(N2CCOCC2)c(F)c1` (racemic) [Example 119, (rac)-5-(3-Fluoro-4-morpholinophenyl)-6-methyl-3,6-dihydro-2H-1,3,4-oxadiazin-2-one], the IC50 with SK-MEL-3 cells (Homo sapiens, SK-MEL3) came to 7 nM; at human full length PDE3B it was 13 nM; in the test with HeLa cells (Homo sapiens, HeLa), 5 nM; at human full length PDE3A, 36 nM.

With `O=C1NN=C(c2ccc(C3=CCC(O)CC3)c(C(F)(F)F)c2)CO1` (racemic) [Example 141, (rac)-5-[4′-Hydroxy-2-(trifluoromethyl)-2′,3′,4′,5′-tetrahydro[1,1′-biphenyl]-4-yl]-3,6-dihydro-2H-1,3,4-oxadiazin-2-one], the IC50 was 3 nM in the test with SK-MEL-3 cells (Homo sapiens, SK-MEL3); 27 nM against human full length PDE3B; 2 nM in the test with HeLa cells (Homo sapiens, HeLa); 13 nM against human full length PDE3A.

Take `O=C1NN=C(c2ccc(C3=CC4CCC3C4)c(C(F)(F)F)c2)CO1` (racemic) [Example 154, (rac)-5-[4-(Bicyclo[2.2.1]hept-2-en-2-yl)-3-(trifluoromethyl)phenyl]-3,6-dihydro-2H-1,3,4-oxadiazin-2-one]: the IC50 in the test on SK-MEL-3 cells (Homo sapiens, SK-MEL3) amounted to 4 nM; against human full length PDE3B it was 120 nM; with HeLa cells (Homo sapiens, HeLa), 2 nM; at human full length PDE3A, 70 nM.

For the compound `O=C1NN=C(c2ccc(NCC(O)C(F)(F)F)c(C(F)(F)F)c2)CO1` (racemic) [Example 204, (rac)-5-[4-{[3,3,3-trifluoro-2-hydroxypropyl]amino}-3-(trifluoromethyl)phenyl]-3,6-dihydro-2H-1,3,4-oxadiazin-2-one], the half-maximal inhibitory concentration (IC50) in the test with SK-MEL-3 cells (Homo sapiens, SK-MEL3) is 2 nM; against human full length PDE3B, 110 nM; in the test on HeLa cells (Homo sapiens, HeLa), 1 nM; against human full length PDE3A, 80 nM.

Take `CC1CC(C)N1c1ccc(C2=NNC(=O)OC2)cc1C(F)(F)F` (racemic) [Example 207, (rac)-5-{4-[2,4-Dimethylazetidin-1-yl]-3-(trifluoromethyl)phenyl}-3,6-dihydro-2H-1,3,4-oxadiazin-2-one]: the half-maximal inhibitory concentration (IC50) was 14 nM in the test with SK-MEL-3 cells (Homo sapiens, SK-MEL3); 180 nM on human full length PDE3B; 9 nM with HeLa cells (Homo sapiens, HeLa); 74 nM against human full length PDE3A.

For `O=C1NN=C(c2ccc(NCC3CCCO3)c(C(F)(F)F)c2)CO1` (racemic) [Example 215, (rac)-5-[4-({[Oxolan-2-yl]methyl}amino)-3-(trifluoromethyl)phenyl]-3,6-dihydro-2H-1,3,4-oxadiazin-2-one], the IC50 in the test with SK-MEL-3 cells (Homo sapiens, SK-MEL3) amounted to 3 nM; at human full length PDE3B it was 100 nM; in the test with HeLa cells (Homo sapiens, HeLa), 2 nM; against human full length PDE3A, 66 nM.

In the case of `O=C1NN=C(c2ccc(C3CCCOC3)c(C(F)(F)F)c2)CO1` (racemic) [Example 271, (rac)-5-{4-[Oxan-3-yl]-3-(trifluoromethyl)phenyl}-3,6-dihydro-2H-1,3,4-oxadiazin-2-one], the half-inhibitory concentration (IC50) with SK-MEL-3 cells (Homo sapiens, SK-MEL3) is 3 nM; on human full length PDE3B, 25 nM; with HeLa cells (Homo sapiens, HeLa), 1 nM; on human full length PDE3A it was 27 nM.

With `NC12CC1CN(c1ccc(C3=NNC(=O)OC3)cc1C(F)(F)F)C2` (racemic) [Example 275, (rac)-5-{4-[1-amino-3-azabicyclo[3.1.0]hexan-3-yl]-3-(trifluoromethyl)phenyl}-3,6-dihydro-2H-1,3,4-oxadiazin-2-one-salt with hydrochloric acid], the half-inhibitory concentration (IC50) in the test with SK-MEL-3 cells (Homo sapiens, SK-MEL3) is 7 nM; against human full length PDE3B, 64 nM; in the test on HeLa cells (Homo sapiens, HeLa), 5 nM; against human full length PDE3A, 29 nM.

As for `CC1OC(=O)NN=C1c1ccc(Br)cc1` (racemic) [Intermediate 72, (rac)-5-(4-Bromophenyl)-6-methyl-3,6-dihydro-2H-1,3,4-oxadiazin-2-one], the IC50 with SK-MEL-3 cells (Homo sapiens, SK-MEL3) amounted to 260 nM; against human full length PDE3B, 400 nM; in the test with HeLa cells (Homo sapiens, HeLa), 78 nM; against human full length PDE3A, 320 nM.

As for `C[C@H]1C[C@H](C)N1c1ccc(C2=NNC(=O)OC2)cc1C(F)(F)F` (relative stereo) [Example 208, (cis or trans)-5-{4-[2,4-Dimethylazetidin-1-yl]-3-(trifluoromethyl)phenyl}-3,6-dihydro-2H-1,3,4-oxadiazin-2-one], the IC50 in the test with SK-MEL-3 cells worked out at 7 nM; against human full length PDE3B, 140 nM; in the test with HeLa cells it was 5 nM; on human full length PDE3A it was 110 nM.

Consider `CC1(F)CCN(c2ccc(C3=NNC(=O)OC3)cc2F)CC1` [Example 5, 5-[3-Fluoro-4-(4-fluoro-4-methylpiperidin-1-yl)phenyl]-3,6-dihydro-2H-1,3,4-oxadiazin-2-one], for which the IC50 with SK-MEL-3 cells (Homo sapiens, SK-MEL3) turned out to be 5 nM; against human full length PDE3B it was 97 nM; with HeLa cells (Homo sapiens, HeLa), 3 nM; against human full length PDE3A it was 139 nM.

For the compound `O=C1NN=C(c2ccc(N3CCC(F)CC3)c(F)c2)CO1` [Example 6, 5-[3-Fluoro-4-(4-fluoropiperidin-1-yl)phenyl]-3,6-dihydro-2H-1,3,4-oxadiazin-2-one], the IC50 came out at 9 nM in the test with SK-MEL-3 cells (Homo sapiens, SK-MEL3); 110 nM against human full length PDE3B; 5 nM in the test with HeLa cells (Homo sapiens, HeLa); 100 nM against human full length PDE3A.

For `Cc1cc(C2=NNC(=O)OC2)ccc1C1=CCOCC1` [Example 10, 5-[4-(3,6-Dihydro-2H-pyran-4-yl)-3-methylphenyl]-3,6-dihydro-2H-1,3,4-oxadiazin-2-one], the IC50 in the test on SK-MEL-3 cells (Homo sapiens, SK-MEL3) worked out at 43 nM; against human full length PDE3B, 230 nM; in the test on HeLa cells (Homo sapiens, HeLa) it was 15 nM; against human full length PDE3A it was 220 nM.

`Cc1cc(C2=NNC(=O)OC2)ccc1-c1cn[nH]c1` [Example 11, 5-[3-Methyl-4-(1H-pyrazol-4-yl)phenyl]-3,6-dihydro-2H-1,3,4-oxadiazin-2-one]: the half-inhibitory concentration (IC50) was 49 nM in the test with SK-MEL-3 cells (Homo sapiens, SK-MEL3); 65 nM against human full length PDE3B; 19 nM in the test with HeLa cells (Homo sapiens, HeLa); 84 nM on human full length PDE3A.

The values are drawn from patent US11427553B2, “Dihydrooxadiazinones” (Bayer Aktiengesellschaft, priority 2017, dated 2022).
